Columns and labels:
Assay type in all cases: in vivo
[1] = test system: Rhipicephalus (Boophilus) microplus larvae (strain Parkhurst, resistant against synthetic pyrethroids); test: Rhipicephalus (Boophilus) microplus in-vitro contact test, larval cattle tick; conditions: after 48 hours, read-out: efficacy (larvae dead or moribund); for pest or weed control at 1 µg/cm2, 100 g/ha: 1 μg/cm^2 (=100 g/ha); for pest or weed control at 5 µg/cm2, 500 g/ha: 5 μg/cm^2 (=500 g/ha)
How it was run: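 Acetone solutions were coated onto glass tube walls (900 ppm gives 5 μg/cm²); after drying, 20–50 pyrethroid-resistant Parkhurst larvae added and held at 27 °C, 85% RH. At 48 h, efficacy as % larvae dead or moribund, judged by loss of negative geotaxis.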

[2] = test system: adult cat fleas (Ctenocephalides felis); test: Ctenocephalides felis in-vitro contact test, adult cat flea; conditions: after 48 hours, read-out: efficacy (fleas dead or moribund); for pest or weed control at 1 µg/cm2, 100 g/ha: 1 μg/cm^2 (=100 g/ha); for pest or weed control at 5 µg/cm2, 500 g/ha: 5 μg/cm^2 (=500 g/ha)
Protocol: Ctenocephalides felis—In-Vitro Contact Tests Adult Cat Flea
(§1) 9 mg compound is solved in 1 ml acetone and diluted with acetone to the desired concentration. 250 μL of the test solution is filled in 25 mL glass test tubes and homogeneously distributed on the inner walls by rotation and tilting on a shaking device (2 h at 30 rpm). With a compound concentration of 900 ppm, an inner surface of 44.7 cm^2 and a homogeneous distribution, a dose of 5 μg/cm^2 is achieved.
(§2) After the solvent has evaporated, each test tube is filled with 5-10 adult cat fleas (Ctenocephalides felis), closed with a perforated lid and incubated in a lying position at room temperature and relative humidity. After 48 hours efficacy is determined. The fleas are patted on the ground of the tubes and are incubated on a heating plate at 45-50° C. for at most 5 minutes Immotile or uncoordinated moving fleas, which are not able to escape the heat by climbing upwards, are marked as dead or moribund.
An efficacy of 100% means all fleas are dead or moribund; 0% means no fleas are dead or moribund.

[3] = test system: larvae of the banded cucumber beetle (Diabrotica balteata); test: Diabrotica balteata spray test; conditions: 168 h, after 7 days, read-out: efficacy (seedling growth); for pest or weed control at 6.4 µg/disc, 20 g/ha: 20 g/ha (=6.4 μg/well); for pest or weed control at 32 µg/disc, 100 g/ha: 100 g/ha (=32 μg/well)
How it was run: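 Germinated wheat seedlings (5 per well, on agar) sprayed with compound in acetone/DMF with emulsifier-containing water, then infested with 10–20 Diabrotica balteata larvae. Efficacy (%) scored after 7 days from seedling growth: 100% = growth as untreated uninfested control, 0% = no seedlings grown.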

[4] = test system: fall armyworm larvae (Spodoptera frugiperda); test: Spodoptera frugiperda spray test; conditions: 168 h, maize leaf sections, after 7 days
How it was run: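 Compound dissolved in acetone/dimethylformamide, diluted in water containing 1000 ppm alkylarylpolyglycol ether emulsifier and sprayed onto maize leaf sections. Dried sections were infested with larvae; % mortality scored after 7 days (100% = all caterpillars killed, 0% = none).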

[5] = test system: adult brown dog ticks (Rhipicephalus sanguineus); test: Rhipicephalus sanguineus in-vitro contact test, adult brown dog ticks; conditions: 48 h, after 48 hours, read-out: efficacy (ticks dead or moribund); for pest or weed control at 5 µg/cm2, 500 g/ha: 5 μg/cm^2 (=500 g/ha)
Protocol: Rhipicephalus sanguineus—In-Vitro Contact Tests with Adult Brown Dog Ticks
as §1, with “mL” for “ml”, “[…]” for “250 μL”
as §2, with “brown dog ticks (Rhipicephalus sanguineus),” for “cat fleas (Ctenocephalides felis),”, “ticks” for “fleas”, “ticks,” for “fleas,”
An efficacy of 100% means all ticks are dead or moribund; 0% means no ticks are dead or moribund.

CCNC(=O)c1ccc(-c2nccnc2C(C)NC(=O)c2cc(C(F)(F)F)cc(C(F)(F)F)c2)nc1 (racemic) [Example I-35, (rac)-6-(3-{1-[3,5-Bis(trifluoromethyl)benzamido]ethyl}pyrazin-2-yl)-N-ethylpyridine-3-carboxamide]
pest or weed control at 1 µg/cm2, 100 g/ha [1]: 100%
pest or weed control at 5 µg/cm2, 500 g/ha [1]: 100%
pest or weed control at 1 µg/cm2, 100 g/ha [2]: 80%
pest or weed control at 5 µg/cm2, 500 g/ha [2]: 100%

CC(NC(=O)c1cc(Br)cc(C(F)(F)F)c1)c1nccnc1-c1ncc(C(=O)N(C)CC2CC2)s1 (racemic) [Example I-119, (rac)-2-(3-{1-[3-Bromo-5-(trifluoromethyl)benzamido]ethyl}pyrazin-2-yl)-N-(cyclopropylmethyl)-N-methyl-1,3-thiazole-5-carboxamide]
pest or weed control at 1 µg/cm2, 100 g/ha [1]: 100%
pest or weed control at 5 µg/cm2, 500 g/ha [1]: 100%
pest or weed control at 5 µg/cm2, 500 g/ha [2]: 90%
pest or weed control at 6.4 µg/disc, 20 g/ha [3]: 100%
pest or weed control at 32 µg/disc, 100 g/ha [3]: 100%
mortality at 100 g/ha [4]: 100%

CCN(C)C(=O)c1cnc(-c2nccnc2C(C)NC(=O)c2cc(C(F)(F)F)cc(C(F)(F)F)c2)s1 (racemic) [Example I-72, (rac)-2-(3-{1-[3,5-Bis(trifluoromethyl)benzamido]ethyl}pyrazin-2-yl)-N-ethyl-N-methyl-1,3-thiazole-5-carboxamide]
pest or weed control at 1 µg/cm2, 100 g/ha [1]: 100%
pest or weed control at 5 µg/cm2, 500 g/ha [1]: 100%
pest or weed control at 5 µg/cm2, 500 g/ha [5]: 80%
pest or weed control at 6.4 µg/disc, 20 g/ha [3]: 100%
pest or weed control at 32 µg/disc, 100 g/ha [3]: 100%
mortality at 100 g/ha [4]: 100%

CC(NC(=O)c1cc(Br)cc(C#N)c1)c1nccnc1-c1ccc(Cl)cn1 (racemic) [Example I-48, (rac)-3-Bromo-N-{1-[3-(5-chloropyridin-2-yl)pyrazin-2-yl]ethyl}-5-cyanobenzamide]
pest or weed control at 5 µg/cm2, 500 g/ha [5]: 80%
pest or weed control at 6.4 µg/disc, 20 g/ha [3]: 80%
pest or weed control at 32 µg/disc, 100 g/ha [3]: 100%
mortality at 100 g/ha [4]: 100%

CC(NC(=O)c1cc(C(F)(F)F)cc(C(F)(F)F)c1)c1nccnc1-n1cc(C(=O)N2C[C@@H](C)O[C@@H](C)C2)cn1 (mixture of isomers) [Example I-138, (rac)-N-[1-(3-{4-[(cis)-2,6-Dimethylmorpholine-4-carbonyl]-1H-pyrazol-1-yl}pyrazin-2-yl)ethyl]-3,5-bis(trifluoromethyl)benzamide]
pest or weed control at 1 µg/cm2, 100 g/ha [1]: 100%
pest or weed control at 5 µg/cm2, 500 g/ha [1]: 100%
pest or weed control at 1 µg/cm2, 100 g/ha ([5]; 1 μg/cm^2 (=100 g/ha)): 100%
pest or weed control at 5 µg/cm2, 500 g/ha [5]: 100%
pest or weed control at 32 µg/disc, 100 g/ha [3]: 100%
mortality at 100 g/ha [4]: 100%

CC(NC(=O)c1cc(Br)cc(C#N)c1)c1nccnc1-c1ccc(C(=O)N2CCOCC2)cn1 (racemic) [Example I-33, (rac)-3-Bromo-5-cyano-N-[1-{3-[5-(morpholine-4-carbonyl)pyridin-2-yl]pyrazin-2-yl}ethyl]benzamide]
pest or weed control at 1 µg/cm2, 100 g/ha [1]: 90%
pest or weed control at 5 µg/cm2, 500 g/ha [1]: 100%
pest or weed control at 1 µg/cm2, 100 g/ha [2]: 100%
pest or weed control at 5 µg/cm2, 500 g/ha [2]: 100%

COc1ccc(-c2nccnc2C(C)NC(=O)c2cc(Br)cc(OC(F)(F)F)c2)nc1 (stereo not shown) [Example I-27]
pest or weed control at 1 µg/cm2, 100 g/ha [1]: 90%
pest or weed control at 5 µg/cm2, 500 g/ha [1]: 80%
pest or weed control at 1 µg/cm2, 100 g/ha [2]: 80%
pest or weed control at 5 µg/cm2, 500 g/ha [2]: 80%
pest or weed control at 32 µg/disc, 100 g/ha [3]: 100%

CC(NC(=O)c1cc(C(F)(F)F)cc(C(F)(F)F)c1)c1nccnc1-c1ncc(C(=O)N2CCCOCC2)s1 (racemic) [Example I-68, (rac)-N-[1-{3-[5-(1,4-Oxazepane-4-carbonyl)-1,3-thiazol-2-yl]pyrazin-2-yl}ethyl]-3,5-bis(trifluoromethyl)benzamide]
pest or weed control at 1 µg/cm2, 100 g/ha [1]: 100%
pest or weed control at 5 µg/cm2, 500 g/ha [1]: 100%
pest or weed control at 1 µg/cm2, 100 g/ha [2]: 100%
pest or weed control at 5 µg/cm2, 500 g/ha [2]: 100%
pest or weed control at 5 µg/cm2, 500 g/ha [5]: 100%
pest or weed control at 32 µg/disc, 100 g/ha [3]: 100%

CC(NC(=O)c1cc(Br)cc(OC(F)(F)F)c1)c1nccnc1-c1ncc(C(=O)N2CCOCC2)s1 (racemic) [Example I-61, (rac)-3-Bromo-N-[1-{3-[5-(morpholine-4-carbonyl)-1,3-thiazol-2-yl]pyrazin-2-yl}ethyl]-5-(trifluoromethoxy)benzamide]
pest or weed control at 1 µg/cm2, 100 g/ha [1]: 100%
pest or weed control at 5 µg/cm2, 500 g/ha [1]: 100%
pest or weed control at 1 µg/cm2, 100 g/ha [2]: 100%
pest or weed control at 5 µg/cm2, 500 g/ha [2]: 100%

CC(NC(=O)c1cc(Br)cc(OC(F)(F)F)c1)c1nccnc1-n1cc(C(F)(F)F)cn1 (racemic) [Example I-94, (rac)-3-Bromo-5-(trifluoromethoxy)-N-[1-{3-[4-(trifluoromethyl)-1H-pyrazol-1-yl]pyrazin-2-yl}ethyl]benzamide]
pest or weed control at 1 µg/cm2, 100 g/ha [1]: 100%
pest or weed control at 5 µg/cm2, 500 g/ha [1]: 100%
pest or weed control at 5 µg/cm2, 500 g/ha [5]: 80%
pest or weed control at 32 µg/disc, 100 g/ha [3]: 100%
mortality at 100 g/ha [4]: 100%

CC(NC(=O)c1cc(Cl)cc(C(F)(F)F)c1)c1nccnc1-c1ncc(C(=O)N2CCOCC2)s1 (racemic) [Example I-59, (rac)-3-Chloro-N-[1-{3-[5-(morpholine-4-carbonyl)-1,3-thiazol-2-yl]pyrazin-2-yl}ethyl]-5-(trifluoromethyl)benzamide]
pest or weed control at 1 µg/cm2, 100 g/ha [1]: 100%
pest or weed control at 5 µg/cm2, 500 g/ha [1]: 100%
pest or weed control at 5 µg/cm2, 500 g/ha [5]: 100%
pest or weed control at 32 µg/disc, 100 g/ha [3]: 100%
mortality at 100 g/ha [4]: 83%

CC(NC(=O)c1cc(C(F)(F)F)cc(C(F)(F)F)c1)c1nccnc1-c1ccc(C(=O)N(C)CC2CC2)cn1 (racemic) [Example I-32, (rac)-6-(3-{1-[3,5-Bis(trifluoromethyl)benzamido]ethyl}pyrazin-2-yl)-N-(cyclopropylmethyl)-N-methylpyridine-3-carboxamide]
pest or weed control at 1 µg/cm2, 100 g/ha [1]: 100%
pest or weed control at 5 µg/cm2, 500 g/ha [1]: 100%
pest or weed control at 5 µg/cm2, 500 g/ha [2]: 100%
mortality at 100 g/ha [4]: 100%

CC(NC(=O)c1cc(Br)cc(C(F)(F)F)c1)c1nccnc1-c1ncc(C(=O)N2C[C@@H](C)O[C@@H](C)C2)s1 (mixture of isomers) [Example I-120, (rac)-3-Bromo-N-[1-(3-{5-[(cis)-2,6-dimethylmorpholine-4-carbonyl]-1,3-thiazol-2-yl}pyrazin-2-yl)ethyl]-5-(trifluoromethyl)benzamide]
pest or weed control at 1 µg/cm2, 100 g/ha [1]: 100%
pest or weed control at 5 µg/cm2, 500 g/ha [1]: 100%
pest or weed control at 32 µg/disc, 100 g/ha [3]: 100%
mortality at 100 g/ha [4]: 100%

CC(NC(=O)c1cc(Cl)cc(Br)c1)c1nccnc1-c1ccc(Cl)cn1 (stereo not shown) [Example I-19]
pest or weed control at 5 µg/cm2, 500 g/ha [2]: 80%
pest or weed control at 6.4 µg/disc, 20 g/ha [3]: 100%
pest or weed control at 32 µg/disc, 100 g/ha [3]: 100%
mortality at 100 g/ha [4]: 100%

CC(NC(=O)c1cc(Br)cc(C(F)(F)F)c1)c1nccnc1-c1ncc(C(=O)N(C)C)s1 (racemic) [Example I-118, (rac)-2-(3-{1-[3-Bromo-5-(trifluoromethyl)benzamido]ethyl}pyrazin-2-yl)-N,N-dimethyl-1,3-thiazole-5-carboxamide]
pest or weed control at 1 µg/cm2, 100 g/ha [1]: 100%
pest or weed control at 5 µg/cm2, 500 g/ha [1]: 100%
pest or weed control at 5 µg/cm2, 500 g/ha [2]: 90%
pest or weed control at 6.4 µg/disc, 20 g/ha [3]: 100%
pest or weed control at 32 µg/disc, 100 g/ha [3]: 100%
mortality at 100 g/ha [4]: 100%
